# Laboratory results as given in patent US4366158A, “1-(8-Quinolyl)-2-pyrrolidone and its pharmaceutical compositions” (Burroughs Wellcome Co., priority 1979, dated 1982).
# Read-outs that look alike come from different tables or passages of the source.
# Experiments:
# rat [1] = experiment: Acetic Acid Writhing Test (AAWT), rat; assay type: in vivo; settings: po
# Excerpt: (§1) Using the procedure described by Koster et al. in Fed. […] 26, Anti-inflammatory Drugs, Ed.
# rat [2] = experiment: Trypsin Hyperalgesic Assay (Published THA); assay type: in vivo; settings: for ED50: po, 0.5 h
# Protocol: (§2) The analgesic agents were administered 30 minutes after the administration of trypsin. In addition, a modification of Vinegar's published assay was carried out, comprising the administration of the analgesic agent preceding subplantar injection of trypsin (0.10 ml of 10% solution of trypsin in pyrogen-free water) by 15 minutes. In both THA's, pain scores were determined 60 minutes after trypsin injection.
# rat [3] = experiment: Trypsin Hyperalgesic Assay (Modified THA); assay type: in vivo; settings: po
# Protocol: as §2
# rat [4] = experiment: Carrageenin Pleurisy Assay (CPA), 3 hour exudate volume; assay type: in vivo; settings: for ED50: po, read-out: ED50, 3 hr. Vol
# rat [5] = experiment: Carrageenin Pleurisy Assay (CPA), mobilized neutrophils at 3 hours; assay type: in vivo; settings: Neutrophil, po, read-out: ED50, 3 hr. Cells
# Protocol: Following the procedure described by Vinegar et al. in Proc Soc Exp Biol Med 151, 556, (1976), the acute anti-inflammatory activity of the compound of formula (I) was compared with that of known anti-inflammatory drugs in the rat. Two assays were performed: in the first, the average 3 hour exudate volume for each drug-treated group was determined and the % inhibition relative to solvent-fed control animals calculated, the ED50 being the dose required to reduce the 3 hour exudate volume by 50%; in the second, the number of mobilized neutrophils was quantified and the % inhibition relative to solvent-fed control animals calculated, the ED50 being the dose required to reduce the number of neutrophils mobilized at 3 hours by 50%.
# rat [6] = experiment: Yeast-Induced Hyperthermia Assay; assay type: in vivo; settings: for antipyretic and hypothermic activity: rat; for ED50: po
# Excerpt: The Yeast-Induced Hyperthermia Assay was used according to the procedure described by Khalili-Varasteh et al. in Arch. Int. Pharmacodyn.
# Toxicity Test = settings: rat, in vivo, po
# Protocol: Four non-fasted male rats of 160-250 gram body weight was used for each dose level. The compound to be tested was administered by the indicated route and the symptom onset time, the intensity of the effect and the duration during a 4 hour observation period were recorded. The LD50 estimation was based on a 7 day observation and was determined by the method of Miller and Tainter (Proc. Soc. Exp. Biol. Med. 57, 261 (1944)).
# mouse = experiment: Acetic Acid Writhing Test (AAWT), mouse; assay type: in vivo; settings: po
# Excerpt: as §1
# rat [7] = experiment: Carrageenin Hindlimb Oedema Assay (CHOA); assay type: in vivo
# rat [8] = assay type: in vivo
# solubility of the base = assay type: physicochemical
# [9] = inhibition of analgesic activity by naloxone; assay type: in vivo
# brain = experiment: analgesic activity when injected directly into the brain; assay type: in vivo
# morphine receptor = experiment: binding to the morphine receptor
# [10] = system: prostaglandin cyclooxygenase; experiment: inhibition of prostaglandin cyclooxygenase; assay type: biochemical
# peroxidase = experiment: inhibition of peroxidase; assay type: biochemical
# lipoxygenase = experiment: inhibition of lipoxygenase; assay type: biochemical
# rat [11] = experiment: anti-inflammatory action in the rat, in words (carrageenin pleurisy and carrageenin hindlimb oedema assays); assay type: in vivo
# [12] = acetic acid writhing assays (species not stated); assay type: in vivo; settings: in words
# [13] = AAWT, rat, p.o., read-out: ED50
# [14] = Published THA, rat, p.o., agent 30 minutes after trypsin, read-out: ED50
# [15] = Modified THA, rat, p.o., agent 15 minutes before trypsin, read-out: ED50
# [16] = CPA, 3 hour exudate volume reduced by 50%, rat, p.o.
# [17] = CPA, neutrophils mobilized at 3 hours reduced by 50%, rat, p.o.
# [18] = Rat Yeast Hyperthermia, p.o., read-out: ED50
# [19] = male rats, 7 day observation, method of Miller and Tainter, read-out: LD50
smiles,measurement,setting,value
CC(=O)Nc1ccc(O)cc1 [Acetaminophen],ED50,rat [1]; [13],127 ± 16.6 mg/kg
same,ED50,rat [2]; [14],360 mg/kg
same,ED50,rat [3]; [15],95 ± 17.2 mg/kg
same,duration of acute anti-inflammatory activity (time of drug administration prior to carrageenin in which inhibition of 3 hour pleural exudate volume declined to 40%),"rat [4]; CPA, 220 mg/kg (p.o.)",over 2 hours
same,ED50,rat [4]; [16],172 ± 22.4 mg/kg
same,ED50,rat [5]; [17],189 ± 48.6 mg/kg
same,antipyretic and hypothermic activity,rat [6]; in words,antipyretic and hypothermic activity
same,ED50,rat [6]; [18],72 ± 8.6 mg/kg
same,LD50 at 168 h,Toxicity Test,2000 mg/kg
same,NOAEL at 4 h,Toxicity Test,250 mg/kg
"O=C1CCCN1c1cccc2cccnc12 [Compound of Formula (I), 1-(8-quinolyl)-2-pyrrolidinone]",ED50,"mouse; AAWT, mouse, p.o., read-out: ED50",99 ± 9.8 mg/kg
same,ED50,rat [1]; [13],22 ± 2.1 mg/kg
same,ED50,rat [2]; [14],37 ± 7.8 mg/kg
same,duration of analgesic activity (time of drug administration prior to trypsin in which inhibition of hyperalgesia declined to 40%),"rat [2]; published THA, 75 mg/kg (p.o.)",10.8 h
same,ED50,rat [3]; [15],13 ± 1.8 mg/kg
same,duration of acute anti-inflammatory activity (time of drug administration prior to carrageenin in which inhibition of 3 hour pleural exudate volume declined to 40%),"rat [4]; CPA, 80 mg/kg (p.o.)",9 h
same,ED50,rat [4]; [16],20 ± 4.3 mg/kg
same,ED50,rat [5]; [17],37 ± 10.4 mg/kg
same,ED50,"rat [7]; CHOA, rat, read-out: ED50",54 ± 31.6 mg/kg
same,effect on body temperature of rats with a normal temperature,"rat [6]; in words, higher dose levels",lowers the body temperature of rats
same,antipyretic and hypothermic activity,rat [6]; in words,antipyretic and hypothermic activity
same,ED50,rat [6]; [18],22 ± 3.9 mg/kg
same,NOAEL at 4 h,Toxicity Test,250 mg/kg
same,LD50 at 168 h,Toxicity Test; [19],1650 mg/kg
same,gastric damage,"rat [8]; rat, 5 days of oral dosing at 40 mg/kg",does not produce gastric damage
same,gastric damage,"rat [8]; rat, single oral dose of 200 mg/kg",does not produce gastric damage
same,solubility,solubility of the base; in 0.1 N HCl,> 50 mg/mL
same,solubility,solubility of the base; in water,> 50 mg/mL
same,inhibition of analgesic activity by naloxone,[9],not inhibited by naloxone
same,analgesic activity on injection into the brain,brain,inactive when injected directly into the brain
same,binding to the morphine receptor,morphine receptor,does not appreciably bind to the morphine receptor
same,inhibition of prostaglandin cyclooxygenase,[10],does not inhibit
same,inhibition of peroxidase,peroxidase,does not inhibit
same,inhibition of lipoxygenase,lipoxygenase,does not inhibit
same,anti-inflammatory activity,rat [11]; rat,"potent, long-lasting acute anti-inflammatory activity"
same,anti-inflammatory effect compared with acetaminophen,rat [11]; versus acetaminophen,more potent and to have a longer lasting anti-inflammatory effect
CC(=O)Oc1ccccc1C(=O)O [Aspirin],ED50,mouse; Mus musculus,137 ± 16.9 mg/kg
same,ED50,rat [1]; Rattus norvegicus,21 ± 3.4 mg/kg
same,ED50,rat [2]; Rattus norvegicus,> 180 mg/kg
same,ED50,rat [3]; Rattus norvegicus,> 180 mg/kg
same,ED50,"rat [4]; Rattus norvegicus, 3 h",28 ± 3.2 mg/kg
same,ED50,"rat [5]; Rattus norvegicus, 3 h",75 ± 7.5 mg/kg
same,ED50,rat [7]; Rattus norvegicus,145 ± 74 mg/kg
same,ED50,rat [6],50 ± 8.1 mg/kg
same,NOAEL at 4 h,"Toxicity Test; male rats, 4 hour observation, read-out: No symptom dose",10 mg/kg
same,LD50 at 168 h,Toxicity Test; [19],1610 mg/kg
same,gastric damage,rat [8]; single oral dose of 30 mg/kg,produces ulcers and haemorrhages
same,activity in the former (acetic acid writhing) assay,[12],inactive in the former assay
